Laboratory results taken from patent publication US20250276107A1, “HYDROGEL SYSTEMS AND METHODS FOR TREATING FISTULA AND OTHER INDICATIONS” (Terasaki Institute for Biomedical Innovation, priority 2024, published 2025).

Tested on: red blood cells (RBCs)
Assay: Hemolysis test with diluted whole human blood
Type: cell-based
Details: 2 h, physiological temperature
Experimental: In the development of bioadhesives, it is important to assess hemocompatibility to evaluate whether the materials damage the blood cells. For this purpose, a standard hemolysis test was performed by exposing crosslinked hydrogels to diluted sodium citrate-treated whole human blood for 2 h at physiological temperature. The presence of a toxic effect was assessed visually by observing the appearance of a red-colored supernatant after centrifugation, indicating the release of hemoglobin from ruptured red blood cells (RBCs). […] After incubation with hydrogels, intact RBCs were efficiently sedimented through centrifugation, similar to the saline negative control. […] The disruption of RBCs was further assessed through colorimetric analysis, with the calculated percent hemolysis induced by the hydrogels presented in FIG. 6A(II). The hemolysis level of the hydrogels at all tested PDA concentrations remained below the acceptable limit (≤5%).

## Triton X-100
  supernatant colour after centrifugation (visual hemolysis): reddish supernatant
